Several values for one entry are separate records, joined by “and”; a condition that tells them apart may be missing. Equal entries are not always repeated. Inconclusive results are not listed.
System: BDF1 mice, colon carcinoma 38 sc, T/C %
Assay: NCI In Vivo Anticancer Drug Screen. Data for tumor model Colon Carcinoma 38 (subcutaneous) in B6D2F1 (BDF1) mice
Conditions: endpoint: median tumor weight (est.), higher = larger tumour
How it was run: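 Compound antitumor activity was assessed in mice carrying transplantable tumors. Survival or tumor size was recorded, and each value is the treated-group measurement divided by that of the vehicle-treated control group.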

[1] = dose: 3.12 mg/kg/injection, schedule: Q07DX002 (ip), vehicle: saline
[2] = dose: 3.12 mg/kg/injection, schedule: Q07DX003 (ip), vehicle: saline
[3] = dose: 6.25 mg/kg/injection, schedule: Q07DX003 (ip), vehicle: saline
[4] = dose: 12.5 mg/kg/injection, schedule: Q07DX002 (ip), vehicle: saline
[5] = dose: 12.5 mg/kg/injection, schedule: Q07DX003 (ip), vehicle: saline
[6] = dose: 25.0 mg/kg/injection, schedule: Q07DX002 (ip), vehicle: saline
[7] = dose: 25.0 mg/kg/injection, schedule: Q07DX003 (ip), vehicle: saline
[8] = dose: 50.0 mg/kg/injection, schedule: Q07DX002 (ip), vehicle: saline
[9] = dose: 50.0 mg/kg/injection, schedule: Q07DX003 (ip), vehicle: saline
[10] = dose: 50.0 mg/kg/injection, schedule: Q07DX002 (ip), vehicle: Klucel (hydroxypropylcellulose) (HPC)
[11] = dose: 100.0 mg/kg/injection, schedule: Q07DX002 (ip), vehicle: saline
[12] = dose: 400.0 mg/kg/injection, schedule: Q07DX002 (ip), vehicle: saline
[13] = dose: 100.0 mg/kg/injection, schedule: Q07DX002 (ip), vehicle: saline with Tween-80
[14] = dose: 200.0 mg/kg/injection, schedule: Q07DX002 (ip), vehicle: saline with Tween-80

C1OC1CN1CCN(CC2CO2)CC1 (stereo not drawn)
T/C [1]: 98 % of control | T/C [2]: 1 % of control | T/C [3]: 23 % of control | T/C [4]: 77 % of control | T/C [5]: 9 % of control | T/C [6]: 100 % of control | T/C [7]: 20 % of control | T/C [8]: 77 % of control | T/C [9]: 4 % of control

C/C(=N\N=C(/[Se])N1CC2CCC(CC2)C1)c1ccccn1
T/C (dose: 3.0 mg/kg/injection, schedule: Q07DX002 (ip), vehicle: Klucel (hydroxypropylcellulose) (HPC)): 111 % of control | T/C (dose: 6.0 mg/kg/injection, schedule: Q07DX002 (ip), vehicle: Klucel (hydroxypropylcellulose) (HPC)): 67 % of control | T/C (dose: 12.0 mg/kg/injection, schedule: Q07DX002 (ip), vehicle: Klucel (hydroxypropylcellulose) (HPC)): 91 % of control | T/C (dose: 25.0 mg/kg/injection, schedule: Q07DX002 (ip), vehicle: Klucel (hydroxypropylcellulose) (HPC)): 106 % of control | T/C [10]: 45 % of control

CN(C)CCN(C)CC(C)(C)C(=O)/C=C/c1ccccc1
T/C (dose: 31.25 mg/kg/injection, schedule: Q07DX002 (ip), vehicle: saline): 119 % of control | T/C (dose: 62.5 mg/kg/injection, schedule: Q07DX002 (ip), vehicle: saline): 11 % of control | T/C (dose: 125.0 mg/kg/injection, schedule: Q07DX002 (ip), vehicle: saline): 52 % of control

C[n+]1ccc(Nc2ccc(NC(=O)c3ccc(Nc4cc[n+](C)c5ccc(N)cc45)cc3)cc2)cc1
T/C (dose: 0.5 mg/kg/injection, schedule: Q07DX002 (ip), vehicle: water): 99 % of control | T/C (dose: 1.0 mg/kg/injection, schedule: Q07DX002 (ip), vehicle: water): 86 % of control | T/C (dose: 2.0 mg/kg/injection, schedule: Q07DX002 (ip), vehicle: water): 93 % of control

Cc1cc2c(c3oc(C4(C)OC4C4OC4C)cc(=O)c13)C(=O)c1c(O)c(C3CC(C)(N(C)C)C(O)C(C)O3)cc(C3CC(N(C)C)C(O)C(C)O3)c1C2=O (stereo not drawn)
T/C (dose: 3.75 micrograms/kg/injection, schedule: Q07DX002 (ip), vehicle: Klucel (hydroxypropylcellulose) (HPC)): 62 % of control | T/C (dose: 7.5 micrograms/kg/injection, schedule: Q07DX002 (ip), vehicle: Klucel (hydroxypropylcellulose) (HPC)): 90 % of control | T/C (dose: 15.0 micrograms/kg/injection, schedule: Q07DX002 (ip), vehicle: Klucel (hydroxypropylcellulose) (HPC)): 99 % of control | T/C (dose: 30.0 micrograms/kg/injection, schedule: Q07DX002 (ip), vehicle: Klucel (hydroxypropylcellulose) (HPC)): 57 % of control

O=C1CN(CN2CCOCC2)C(=O)CN1CN1CCOCC1
T/C [4]: 115 % of control | T/C [8]: 116 % of control and 107 % of control | T/C [11]: 115 % of control | T/C [12]: 50 % of control

CCOC(=O)CNC(=O)CCCCSc1ncnc2nc[nH]c12
T/C (dose: 200.0 mg/kg/injection, schedule: Q07DX003 (ip), vehicle: saline with Tween-80): 74 % of control | T/C (dose: 400.0 mg/kg/injection, schedule: Q07DX003 (ip), vehicle: saline with Tween-80): 104 % of control | T/C (dose: 800.0 mg/kg/injection, schedule: Q07DX003 (ip), vehicle: saline with Tween-80): 79 % of control | T/C (dose: 1600.0 mg/kg/injection, schedule: Q07DX003 (ip), vehicle: saline with Tween-80): 82 % of control

ClCCCN1CCN(CCCCl)CC1
T/C (dose: 12.5 mg/kg/injection, schedule: Q07DX002 (ip), vehicle: distilled water + alcohol): 94 % of control | T/C (dose: 25.0 mg/kg/injection, schedule: Q07DX002 (ip), vehicle: distilled water + alcohol): 154 % of control | T/C (dose: 50.0 mg/kg/injection, schedule: Q07DX002 (ip), vehicle: distilled water + alcohol): 153 % of control and 207 % of control | T/C (dose: 100.0 mg/kg/injection, schedule: Q07DX002 (ip), vehicle: distilled water + alcohol): 39 % of control and 50 % of control | T/C (dose: 200.0 mg/kg/injection, schedule: Q07DX002 (ip), vehicle: distilled water + alcohol): 63 % of control

O=c1[nH]c(=O)n(C2OC(CO)C(O)C2O)cc1F (stereo not drawn)
T/C [1]: 121 % of control | T/C (dose: 6.25 mg/kg/injection, schedule: Q07DX002 (ip), vehicle: saline): 106 % of control | T/C [4]: 64 % of control

O=CCC(O)C(O)C(O)CO (stereo not drawn)
T/C (dose: 600.0 mg/kg/injection, schedule: Q07DX002 (ip), vehicle: suspension in saline): 108 % of control | T/C (dose: 1800.0 mg/kg/injection, schedule: Q07DX002 (ip), vehicle: suspension in saline): 96 % of control | T/C (dose: 2400.0 mg/kg/injection, schedule: Q07DX002 (ip), vehicle: suspension in saline): 102 % of control | T/C (dose: 3600.0 mg/kg/injection, schedule: Q07DX002 (ip), vehicle: suspension in saline): 74 % of control

CCc1nc(N)nc(N)c1-c1ccc(Cl)c(N=[N+]=[N-])c1
T/C (dose: 25.0 mg/kg/injection, schedule: Q07DX002 (ip), vehicle: distilled water + Tween-80): 82 % of control | T/C (dose: 50.0 mg/kg/injection, schedule: Q07DX002 (ip), vehicle: distilled water + Tween-80): 98 % of control | T/C (dose: 100.0 mg/kg/injection, schedule: Q07DX002 (ip), vehicle: distilled water + Tween-80): 97 % of control | T/C (dose: 200.0 mg/kg/injection, schedule: Q07DX002 (ip), vehicle: distilled water + Tween-80): 88 % of control | T/C (dose: 400.0 mg/kg/injection, schedule: Q07DX002 (ip), vehicle: distilled water + Tween-80): 106 % of control

Cc1ccc(S(=O)(=O)NC(=O)C2C(=O)CC3(CCCCC3)CC2=O)cc1
T/C [10]: 104 % of control | T/C (dose: 100.0 mg/kg/injection, schedule: Q07DX002 (ip), vehicle: Klucel (hydroxypropylcellulose) (HPC)): 112 % of control | T/C (dose: 200.0 mg/kg/injection, schedule: Q07DX002 (ip), vehicle: Klucel (hydroxypropylcellulose) (HPC)): 95 % of control | T/C (dose: 400.0 mg/kg/injection, schedule: Q07DX002 (ip), vehicle: Klucel (hydroxypropylcellulose) (HPC)): 102 % of control

N#CN=[N+]([O-])c1ccc(C(=O)O)cc1
T/C (dose: 3.75 mg/kg/injection, schedule: Q07DX002 (ip), vehicle: Klucel (hydroxypropylcellulose) (HPC)): 117 % of control and 123 % of control | T/C (dose: 7.5 mg/kg/injection, schedule: Q07DX002 (ip), vehicle: Klucel (hydroxypropylcellulose) (HPC)): 124 % of control | T/C (dose: 15.0 mg/kg/injection, schedule: Q07DX002 (ip), vehicle: Klucel (hydroxypropylcellulose) (HPC)): 87 % of control | T/C (dose: 60.0 mg/kg/injection, schedule: Q07DX002 (ip), vehicle: Klucel (hydroxypropylcellulose) (HPC)): 159 % of control

Cc1ccc(-c2cc(=O)c3cccc(CC(=O)O)c3o2)cc1
T/C [13]: 83 % of control | T/C [14]: 50 % of control

O=Cc1ccc(C(Cl)(Cl)Cl)cc1
T/C (dose: 12.5 mg/kg/injection, schedule: Q07DX002 (ip), vehicle: saline with Tween-80): 47 % of control | T/C [4]: 78 % of control | T/C (dose: 25.0 mg/kg/injection, schedule: Q07DX002 (ip), vehicle: saline with Tween-80): 74 % of control | T/C [6]: 79 % of control | T/C [8]: 74 % of control | T/C [13]: 93 % of control | T/C [11]: 88 % of control | T/C [14]: 66 % of control | T/C (dose: 200.0 mg/kg/injection, schedule: Q07DX002 (ip), vehicle: saline): 67 % of control | T/C [12]: 82 % of control

CNc1nc(N(C)C)nc(N(C)C)n1
T/C [2]: 114 % of control | T/C [3]: 95 % of control | T/C (dose: 6.25 mg/kg/injection, schedule: Q07DX003 (ip), vehicle: water): 89 % of control | T/C [5]: 121 % of control | T/C (dose: 12.5 mg/kg/injection, schedule: Q07DX003 (ip), vehicle: water): 104 % of control | T/C [7]: 121 % of control | T/C (dose: 25.0 mg/kg/injection, schedule: Q07DX003 (ip), vehicle: water): 61 % of control | T/C [9]: 114 % of control | T/C (dose: 50.0 mg/kg/injection, schedule: Q07DX003 (ip), vehicle: water): 158 % of control | T/C (dose: 100.0 mg/kg/injection, schedule: Q07DX003 (ip), vehicle: water): 108 % of control | T/C (dose: 200.0 mg/kg/injection, schedule: Q07DX003 (ip), vehicle: saline): 32 % of control | T/C (dose: 200.0 mg/kg/injection, schedule: Q07DX003 (ip), vehicle: water): 22 % of control

CC1C2CCC3C(O)C2(CC(O)C2(O)C1CC(O)C2(C)C)CC3(C)O (stereo not drawn)
T/C (dose: 0.5 mg/kg/injection, schedule: Q07DX002 (ip), vehicle: Klucel (hydroxypropylcellulose) (HPC)): 103 % of control | T/C (dose: 2.0 mg/kg/injection, schedule: Q07DX002 (ip), vehicle: Klucel (hydroxypropylcellulose) (HPC)): 181 % of control

Source: PubChem BioAssay AID212 (DTP/NCI, 2004)
